Where two headings read alike, the source gives them in different places.
What was measured:
[1] = system: GBA2 (GBA2-overexpressing HEK293T lysate); conditions: cited from earlier work
[2] = target: T1, recombinant human GAA (rhGAA, Myozyme) (Homo sapiens, UniProt P10253); assay: competitive FluoPol-ABPP assay on rhGAA with TAMRA-ABP II; format: biochemical; conditions: library screen, 5 μM inhibitor, 25 nM ABP II;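 further: fluorescence polarization read at 540 nm excitation and 590 nm emission, background-corrected, normalized to uninhibited probe labelling as 100% and excess cyclosulfate as 0%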
T1 construct: purchased Genzyme

[3] = target: T2, human recombinant lysosomal α-glucosidase GAA (Myozyme) (Homo sapiens, UniProt P10253); assay: fluorogenic substrate (4MU-α-D-glucopyranoside) assay on rhGAA; format: biochemical; conditions: Table S2, 4-MU alpha glucoside substrate, read-out: IC50 on rhGAA
T2 construct: purchased Genzyme

[4] = target: T3, ER α-glucosidase GANAB (from Pompe disease Fibroblast lysates) (Homo sapiens, UniProt Q14697); assay: fluorogenic substrate (4MU-α-D-glucopyranoside) assay on GANAB in Pompe fibroblast homogenates; format: biochemical;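 further: inhibitor preincubated 30 min at 37 °C with homogenate, then GANAB activity read after 2 h with 3.0 mM fluorogenic substrate in McIlvaine buffer containing 0.1% BSA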
T3 construct: Cellular homogenates of Pompe fibroblasts (1 mg mL^−1) were used as protein source for GANAB; endogenous in cells; host or cells: Pompe disease fibroblasts (homogenate)
T3 sequence (Q14697 29-944): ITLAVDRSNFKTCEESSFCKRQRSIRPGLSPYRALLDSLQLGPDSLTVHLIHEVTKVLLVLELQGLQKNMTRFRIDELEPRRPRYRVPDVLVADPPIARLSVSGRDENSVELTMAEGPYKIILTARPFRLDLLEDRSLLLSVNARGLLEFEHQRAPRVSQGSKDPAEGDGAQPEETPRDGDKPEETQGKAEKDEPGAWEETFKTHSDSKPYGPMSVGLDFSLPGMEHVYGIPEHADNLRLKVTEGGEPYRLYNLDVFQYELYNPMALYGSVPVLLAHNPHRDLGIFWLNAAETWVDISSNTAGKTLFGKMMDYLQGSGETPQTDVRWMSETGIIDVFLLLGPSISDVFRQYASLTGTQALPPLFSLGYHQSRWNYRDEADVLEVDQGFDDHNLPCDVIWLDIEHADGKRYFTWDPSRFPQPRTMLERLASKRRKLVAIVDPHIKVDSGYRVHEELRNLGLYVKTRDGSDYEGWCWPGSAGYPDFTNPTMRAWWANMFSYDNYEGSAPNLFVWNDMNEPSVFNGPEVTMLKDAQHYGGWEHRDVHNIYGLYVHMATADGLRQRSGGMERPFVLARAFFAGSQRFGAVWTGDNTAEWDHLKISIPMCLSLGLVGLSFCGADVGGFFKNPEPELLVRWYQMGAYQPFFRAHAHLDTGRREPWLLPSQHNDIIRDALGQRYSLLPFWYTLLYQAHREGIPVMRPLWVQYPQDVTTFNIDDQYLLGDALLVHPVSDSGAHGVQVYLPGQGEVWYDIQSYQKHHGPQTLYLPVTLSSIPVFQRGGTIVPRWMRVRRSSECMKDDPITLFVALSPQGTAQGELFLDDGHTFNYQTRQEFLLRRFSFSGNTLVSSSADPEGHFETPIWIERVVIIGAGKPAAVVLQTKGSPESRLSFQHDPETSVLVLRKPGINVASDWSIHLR
T3 sequence (P14314 15-528 partner): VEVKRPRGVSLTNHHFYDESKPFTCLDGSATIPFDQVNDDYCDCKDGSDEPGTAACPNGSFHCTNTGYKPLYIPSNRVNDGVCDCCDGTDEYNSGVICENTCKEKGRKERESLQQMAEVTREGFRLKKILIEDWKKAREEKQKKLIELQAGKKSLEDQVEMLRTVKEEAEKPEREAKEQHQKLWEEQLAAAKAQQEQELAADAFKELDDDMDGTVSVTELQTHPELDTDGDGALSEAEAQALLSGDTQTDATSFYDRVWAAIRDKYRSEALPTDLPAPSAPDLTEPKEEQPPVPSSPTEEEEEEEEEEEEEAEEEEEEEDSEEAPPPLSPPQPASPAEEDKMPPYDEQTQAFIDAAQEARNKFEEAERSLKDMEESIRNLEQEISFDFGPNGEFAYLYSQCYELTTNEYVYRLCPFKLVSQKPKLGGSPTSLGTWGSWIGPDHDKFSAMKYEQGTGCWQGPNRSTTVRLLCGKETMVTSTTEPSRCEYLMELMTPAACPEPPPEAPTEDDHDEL

rhGBA1 (Cerezyme) = conditions: read-out: IC50 GBA1; cited from earlier work
[5] = system: glucosylceramide synthase (GCS) (RAW 264.7 cells); conditions: in situ; cited from earlier work
[6] = target: T4, recombinant human GBA1 (rhGBA1, Cerezyme) (Homo sapiens, UniProt P04062, R534H); assay: competitive FluoPol-ABPP assay on rhGBA1 with TAMRA-ABP I; format: biochemical; conditions: library screen, 5 μM inhibitor, 5 nM ABP I
T4 construct: purchased Genzyme
T4 sequence (P04062 40-536 R534H): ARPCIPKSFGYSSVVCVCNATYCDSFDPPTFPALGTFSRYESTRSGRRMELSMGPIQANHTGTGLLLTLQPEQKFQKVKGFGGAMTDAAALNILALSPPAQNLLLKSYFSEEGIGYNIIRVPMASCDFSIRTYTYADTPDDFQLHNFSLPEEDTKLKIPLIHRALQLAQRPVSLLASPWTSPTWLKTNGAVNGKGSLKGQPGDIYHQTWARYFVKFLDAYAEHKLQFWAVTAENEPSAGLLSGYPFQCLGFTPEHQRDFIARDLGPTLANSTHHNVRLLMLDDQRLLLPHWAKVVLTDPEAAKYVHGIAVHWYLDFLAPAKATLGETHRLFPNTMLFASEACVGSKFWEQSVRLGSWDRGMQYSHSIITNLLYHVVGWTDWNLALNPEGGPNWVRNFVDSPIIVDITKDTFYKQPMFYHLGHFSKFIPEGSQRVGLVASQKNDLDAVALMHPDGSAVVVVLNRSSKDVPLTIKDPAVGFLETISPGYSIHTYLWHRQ

[7] = system: retaining β-glucosidases GBA1, GBA2 and GBA3; assay: SDS-gel activity-based protein profiling (in-gel fluorescence labelling); format: biochemical; conditions: 500 nM probe, 30 min 37 °C
Protocol: Lysates of HEK293T GBA2 overexpressing and HEK293T GBA3 overexpressing cells[24] were prepared in 150 mM McIlvain buffer (pH = 5.0), supplemented with 0.25 M sucrose, 0.2% sodium taurocholate (w/v) and 0.1% Triton X-100 (v/v). The lysates were homogenized using sonication, after which the total protein concentration was determined via Pierce BCA Protein assay (ThermoFisher) using BSA (ThermoFisher) for standards. Samples (Vf = 20 μL) of an 1 : 1 mixture of GBA2 : GBA3 lysates containing 40 μg protein were incubated for 30 min at 37 °C with 500 nM ABP. Protein content was denatured using Laemmli Buffer (4×) at 98 °C for 5 min. Reactions were resolved by 7.5% SDS-PAGE electrophoresis and wet slabs were scanned for fluorescence (Typhoon FLA 9500, GE Healthcare).

[8] = 4MU-α-glucoside substrate, pH 7.0, mean ± SD, 3 technical replicates, read-out: IC50 GANAB
[9] = Table S2, 4-MU alpha glucoside substrate, read-out: IC50 on GANAB

GAA FP% (residual FP-signal) [2] [%]	IC50 [3] [µM]	IC50 [4, 9] [µM]	SMILES	also measured
29	2.46		OC[C@H]1N[C@H](CCCCCCOCC23CC4CC(CC(C4)C2)C3)[C@H](O)[C@@H](O)[C@@H]1O [Compound 8]	inhibition at 5 µM [6]: > 90%
			COC(=O)c1cc(C(=O)NCCCCc2cn(C[C@@H]3[C@@H](O)[C@H](O)[C@@H](O)[C@@H]4O[C@H]34)nn2)ccc1-c1c2ccc(=[N+](C)C)cc-2oc2cc(N(C)C)ccc12 [ABP I]	β-glucosidase labelling selectivity of the probe [7]: modifies exclusively GBA1
34	4		OC[C@H]1N[C@H](CCCCCOCC23CC4CC(CC(C4)C2)C3)[C@H](O)[C@@H](O)[C@@H]1O [Compound 14]	IC50 [1]: 0.3 µM; IC50 [4, 8]: > 100 µM; IC50 (rhGBA1 (Cerezyme)): 0.07 µM; IC50 [5]: 50 µM
			O[C@@H]1[C@@H](O)[C@@H](CCCCCCOCC23CC4CC(CC(C4)C2)C3)NC[C@H]1O [Compound 7]	inhibition at 5 µM [6]: > 90%
7.7	0.25	0.85	OC[C@@H]1[C@@H](O)[C@H](O)[C@@H](O)CN1CCCCCOCc1ccc2ccccc2c1 [#ID 58]	
18	0.32	9	CCCCCCCCCN1C[C@H](O)[C@@H](O)[C@H](O)[C@H]1CO [#ID 103]	
4.8	0.021	0.71	OC[C@@H]1[C@@H](O)[C@H](O)[C@@H](O)CN1CCCCCOCc1ccc(-c2ccccc2)cc1F [#ID 35]	
			CCCCCCCCN1C[C@H](O)[C@@H](O)[C@H](O)[C@H]1CO [#ID 286]	GAA FP% (residual FP-signal) ([2]; listed as 286): 9.1%; IC50 ([3]; listed as 286): 0.76 µM; IC50 ([4]; Table S2, 4-MU alpha glucoside substrate, listed as 286, read-out: IC50 on GANAB): 8.5 µM
2.4	0.016	0.72	OC[C@@H]1[C@@H](O)[C@H](O)[C@@H](O)CN1CCCCCOCc1ccc(-c2ccccc2)c(C(F)(F)F)c1 [#ID 120]	
0.1	0.037	0.42	N#Cc1ccc(-c2ccc(COCCCCCN3C[C@H](O)[C@@H](O)[C@H](O)[C@H]3CO)cc2)cc1 [#ID 309]	
20	0.76	9.32	OC[C@@H]1[C@@H](O)[C@H](O)[C@@H](O)CN1CCCCCOCc1ccccc1 [#ID 139]	
			CCCCCOCCCCCN1C[C@H](O)[C@@H](O)[C@H](O)[C@H]1CO [#ID 281]	GAA FP% (residual FP-signal) ([2]; listed as 281): 4.2%; IC50 ([3]; listed as 281): 0.54 µM; IC50 ([4]; Table S2, 4-MU alpha glucoside substrate, listed as 281, read-out: IC50 on GANAB): 3.7 µM

SMILES	GAA FP% (residual FP-signal) [2] [%]	IC50 [3] [µM]	IC50 [4, 9] [µM]	also measured
OC[C@@H]1[C@@H](O)[C@H](O)[C@@H](O)CN1CCCCCOCc1cc2ccccc2c2ccccc12 [Compound 15]	25	0.11	2	IC50 [1]: 0.1 µM; IC50 [4, 8]: 1.96 ± 0.04 µM; IC50 (rhGBA1 (Cerezyme)): 10 µM; IC50 [5]: > 20 µM

— PMC10466331, “Fluorescence polarisation activity-based protein profiling for the identification of deoxynojirimycin-type inhibitors selective for lysosomal retaining alpha- and beta-glucosidases” (Chemical Science, 2023)
